Data as given in patent publication US20040097534A1, “Composition for the protection and regeneration of nerve cells containing berberine derivatives” (EUGENBIO INC., priority 2001, published 2004).
Entries after “also recorded” stand apart in the source; their conditions may differ.

Legend:
SH-SY5Y cells = test: Neurite regeneration in SH-SY5Y cells; type: cell-based, human
Procedure: Thereafter, the culture was treated with berberine and further cultured for 2 days. The cultured cells were immunostained with nerve cell-specific labeled molecule, and then the number of cells having neurites longer than cell bodies was counted under a confocal microscope. A positive control was treated with bFGF under the same condition as described above to induce the differentiation into nerve cells. In addition, the neuroregenerative effect was examined after berberine together with bFGF was treated. The differentiation degree was measured by double-staining neurites with nerve cell-specific labeled molecule (anti-neurofilament antibody) and FITC-labeled secondary antibody (green), followed by staining cell nuclei with propidium iodide (red). In order to examine the effect of berberine on neurite regeneration, SH-SY5Y cells were used as differentiated nerve cell lines. Retinoic acid inducing neurite growth was used as a positive control.

white rats = test: Toxicity and side effects in vivo
Procedure: The dosage for berberine can be varied depending upon known factors, such as age, sex, body weight, disease severity and health condition of the recipient. The daily dosage is commonly in the range of 100 to 150 mg/60 kg of body weight in two or three installments.

sciatic nerves = test: Regeneration of crushed sciatic nerves (axons, myelin sheaths); type: in vivo, Sprague-Dawley white rat; conditions: 3 weeks, berberine intraperitoneal

Q: How did the length of neurites (SH-SY5Y cells; berberine) turn out when `COc1ccc2cc3[n+](cc2c1OC)CCc1cc2c(cc1-3)OCO2` [Berberine, 7,8,13,13a-tetradihydro-9,10-dimethoxy-2,3-(methylenedioxy) berbinium] was run?
A: The length of neurites was “lengthened the length of neurites”.

Q: What about the “total number of nerve cells, increase” value (SH-SY5Y cells; berberine) of the same compound?
A: The value was “increased two times; also recorded: doubled”.

Q: And the “Average (%) of differentiated cells” value (SH-SY5Y cells; berberine 0.25 μg/ml)?
A: Its value is 63.34%.

Q: What about the “Number of differentiated cells” value (SH-SY5Y cells; berberine 0.25 μg/ml) of the same compound?
A: The value was 26.51.

Q: And the “total average cell numbers” value (SH-SY5Y cells; berberine 0.25 μg/ml)?
A: Its value is 39.75.

Q: And the “Average (%) of differentiated cells” value (SH-SY5Y cells; berberine 1.5 μg/ml)?
A: The value was 71.04%.

Q: What about the “Number of differentiated cells” value (SH-SY5Y cells; berberine 1.5 μg/ml) of the same compound?
A: Its value is 27.89.

Q: And the “total average cell numbers” value (SH-SY5Y cells; berberine 1.5 μg/ml)?
A: The value was 38.80.

Q: What about the “Average (%) of differentiated cells” value (SH-SY5Y cells; berberine 3 μg/ml) of the same compound?
A: The value was 73.95%.

Q: And the “Number of differentiated cells” value (SH-SY5Y cells; berberine 3 μg/ml)?
A: Its value is 28.64.

Q: What about the “total average cell numbers” value (SH-SY5Y cells; berberine 3 μg/ml) of the same compound?
A: Its value is 38.60.

Q: What about the LD50 (white rats; intraperitoneally injected) of the same compound?
A: The LD50 was 24.3 mg/kg.

Q: And the acute toxicity (white rats; white rats)?
A: The acute toxicity was “no acute toxicity”.

Q: What about the “side effects on liver functions” value (white rats; white rats) of the same compound?
A: Its value is “no side effects on liver functions”.

Q: What about the “number of axons longer than 300 μm” value (sciatic nerves; PBS = 21.3) of the same compound?
A: Its value is 51.6.

Q: What about the “number of myelin sheaths longer than 200 μm” value (sciatic nerves; PBS = 40) of the same compound?
A: Its value is 112.
